# Test results taken from PMC6591251, “Discovery of potent necroptosis inhibitors targeting RIPK1 kinase activity for the treatment of inflammatory disorder and cancer metastasis” (Cell Death & Disease, 2019).
# Like-named read-outs stand apart in the source and are kept apart here.
# Key:
# [1] = Pharmacokinetic profile in mice; type: in vivo; conditions: ICR, mouse, plasma; for AUC(0-t): read-out: AUC0-24
# Procedure: Encouraged by our overall satisfactory in vitro potency and selectivity data for PK68, we decided to assess its in vivo pharmacokinetic profile.
# Data represent mean value ± standard deviation. b Plasma pharmacokinetic parameters of PO and IV. c, d C57BL/6 mice (n = 5) were treated with the indicated daily oral gavage dosing of PK68 for successive 14 days. Body weight (c) and hematoxylin-eosin (H&E) staining (d) of mice were analyzed. Control mice received an equal amount of vehicle. Magnification: ×40. Data represent mean value ± standard deviation TEXT PRINTED IN THE PICTURE: (b) no label printed: Tmax (hr): 0.5 (PO (Gavage)); Cmax (ng/mL): 2423 (PO (Gavage)); AUC0-24 (ng/mL*hr): 4821 (PO (Gavage)); AUC0-24 (ng/mL*hr): 1588 (IV (Bolus)); AUCINF (ng/mL*hr): 4897 (PO (Gavage)); AUCINF (ng/mL*hr): 1590 (IV (Bolus)); t1/2 (hr): 1.3 (PO (Gavage)); t1/2 (hr): 1.0 (IV (Bolus)); MRT (hr): 1.8 (PO (Gavage)); MRT (hr): 0.8 (IV (Bolus)); CL (mL/hr/kg): 1258 (IV (Bolus)); CL (mL/min/kg): 21 (IV (Bolus)); Vss (mL/kg): 1009 (IV (Bolus)); Vss (L/kg): 1.0 (IV (Bolus)); F(%): 61 (PO (Gavage)) DOUBTS OF THE COPYIST ABOUT THIS PICTURE: Panel b prints no substance label with the PK table. The name PK68 is printed only in panels c and d, so the label is left empty.
# Judging by the PK time curve, the observed plasma levels of PK68 were above its EC50 over a period of 8 h. […] These doses were meant to determine the preliminary toxicity effects of PK68 (Fig. 6c). […] We further performed histology of various tissues from mice that had received 14-day treatment of PK68.
# [2] = system: RFP-LL/2 cells; experiment: Early metastasis/extravasation of tumor cells, 6 h after injection; type: in vivo, C57BL/6 mice; conditions: 5 mg/kg ip
# Procedure: (§1) Studies have shown that RIPK1 kinase activity is involved in the promotion of tumor metastasis through death receptor 6-dependent necroptosis of endothelial cells[22] or VEGF-dependent activation of vascular permeability. We thus evaluated the therapeutic effect of PK68 on lung metastasis of mouse melanoma B16-F10 cells in vivo. […] After 2 weeks, the metastasis of B16-F10 cells was measured by histological analysis and assessed as the number of metastasis nodules in the lung. […] Two weeks after intravenous injection of RFP-LL/2 cells, RFP^+ LL/2 cells were isolated from the tumor tissues by flow cytometer sorting and no signal of phosphorylated RIPK1 was detected in these tumors cells (Supplementary Fig. 22). […] Further, we evaluated the effect of PK68 on the tumor cell transmigration across the cultured endothelium. […]
# Melanoma B16-F10 cells (0.5 × 10^6 cells) or RFP-labeled lung carcinoma LL/2 cells (0.3 × 10^6 cells) were injected into C57BL/6 mice in a volume of 200 μl PBS via the tail intravenous injection. […] The lung metastasis of B16-F10 cells in mice was determined by accounting the number of metastasis nodules with a dissecting microscope (Leica) and histologic analysis. The lung metastasis of LL/2 cells in mice was analyzed by measuring RFP fluorescence intensities with the PerkinElmer IVIS Lumina II. […]
# [3] = system: B16-F10 cells; experiment: Lung metastasis model of melanoma cells; type: in vivo, C57BL/6 mice; conditions: 5 mg/kg ip pre-treatment; 14 days
# Procedure: as §1
# C57BL/6 mice bearing B16-F10 cells (a, b) or RFP-labeled LL/2 cells (c, d) were treated with vehicle, PK68 (5 mg/kg) or Nec-1s (5 mg/kg) as described in the Materials and methods. a, b Tumor metastasis of B16-F10 was measured by the numbers of metastasis nodules and histological analysis. […] The numbers of metastasis nodules on lung surfaces (b) in the metastasis model of B16-F10 were counted with the microscope. c, d Tumor metastasis of RFP-labeled LL/2 was calculated by RFP […] intensity. […]
# [4] = system: human and mouse cells; experiment: RIPK1-dependent necroptosis (abstract summary); type: cell-based; conditions: read-out: EC50, inhibition of RIPK1-dependent necroptosis
# Description: Necroptosis is a form of regulated necrosis controlled by receptor-interacting kinase 1 (RIPK1 or RIP1), RIPK3 (RIP3), and pseudokinase mixed lineage kinase domain-like protein (MLKL). […] Herein, we discovered the small-molecule PK6 and its derivatives as a novel class of necroptosis inhibitors that directly block the kinase activity of RIPK1. […] PK68 efficiently blocks cellular activation of RIPK1, RIPK3, and MLKL upon necroptosis stimuli. […] Importantly, PK68 provides strong protection against TNF-α-induced systemic inflammatory response syndrome in vivo.
structure (smiles),measurement,setting,value
"CC(=O)Nc1nc2ccc(-c3cnc(C)c(NC(=O)OC4CCCCC4)c3)cc2s1 [PK68, cyclohexyl (5-(2-acetamidobenzo[d]thiazol-6-yl)-2-methylpyridin-3-yl)carbamate]",clearance,"[1]; iv, 2 mg/kg, IV (Bolus)",21 mL/min/kg
same,Vd,"[1]; iv, 2 mg/kg, IV (Bolus), read-out: Vss",1 L/kg
same,AUC(0-inf),"[1]; 2 mg/kg, IV (Bolus)",1590 ng·h/mL
same,MRT,"[1]; 2 mg/kg, IV (Bolus)",0.8 h
same,half-life,"[1]; 2 mg/kg, IV (Bolus)",1 h
same,AUC(0-t),"[1]; 2 mg/kg, IV (Bolus)",1590 ng·h/mL
same,AUC(0-inf),"[1]; 10 mg/kg, PO (Gavage)",4900 ng·h/mL
same,MRT,"[1]; 10 mg/kg, PO (Gavage)",1.8 h
same,half-life,"[1]; 10 mg/kg, PO (Gavage)",1.3 h
same,AUC(0-t),"[1]; 10 mg/kg, PO (Gavage)",4820 ng·h/mL
same,bioavailability,"[1]; 10 mg/kg, PO (Gavage), read-out: F(%) oral bioavailability",61%
same,Cmax,"[1]; po, orally 10 mg/kg, read-out: plasma concentration translated from Cmax",~4 µM
same,Tmax,"[1]; PO (Gavage), 10 mg/kg",0.5 h
same,Cmax,"[1]; PO (Gavage), 10 mg/kg, read-out: Cmax",2420 ng/mL
same,number of RFP-LL/2 cells in the lung 6 h after injection,[2],decreased number
same,number of pulmonary metastasis nodules,[3],significantly reduced
same,EC50,[4],14 to 22 nM
